{"source": "patent US20090285770A1", "about": "“Topical Compositions for Promoting Homeostasis of the Skin” (L'Oreal, priority 2005, published 2009)", "origin": "cited, not measured here", "key": {"(6 integrins)": {"tested_on": "(6 integrins)", "settings": "fibroblasts and keratinocytes in culture"}, "P1 integrins": {"tested_on": "P1 integrins", "settings": "applied to skin ex vivo"}, "β1 integrins [1]": {"tested_on": "β1 integrins", "settings": "cells in culture"}, "[2]": {"tested_on": "α2, α3, α6, αv and β1 integrins", "settings": "keratinocytes in culture or reconstructed skins"}, "β1 integrins [3]": {"tested_on": "β1 integrins"}}, "note": "Where two headings read alike, the source gives them in different places. Ends that are not written are not given here."}
{"substance": "SERILESINE", "values": [{"measurement": "expression of (6 integrins)", "setting": "(6 integrins)", "value": "increasing the expression of (6 integrins"}]}
{"substance": "GPQGPQ [COLLAXYL, collagen mimetic hexapeptide sold by Vincience]", "values": [{"measurement": "expression of P1 integrins", "setting": "P1 integrins", "value": "stimulates the expression of P1 integrins"}]}
{"substance": "KLDAPT [VINCI 02, fibronectin mimetic hexapeptide sold by Vincience]", "values": [{"measurement": "expression of β1 integrins", "setting": "β1 integrins [1]", "value": "stimulates the expression of β1 integrins"}]}
{"substance": "zinc gluconate", "values": [{"measurement": "expression of integrins, in particular the α2, α3, α6, αv and β1 integrins", "setting": "[2]", "value": "capable of increasing the expression of integrins"}]}
{"substance": "manganese gluconate", "values": [{"measurement": "expression of integrins, in particular the α2, α3, α6, αv and β1 integrins", "setting": "[2]", "value": "capable of increasing the expression of integrins"}]}
{"substance": "RDFTKATNIRLRFLR [VINCI 01, laminin mimetic oligopeptide sold by Vincience]", "values": [{"measurement": "expression of β1 integrins", "setting": "β1 integrins [3]", "value": "stimulates the expression of β1 integrins"}]}
{"substance": "copper gluconate", "values": [{"measurement": "expression of integrins, in particular the α2, α3, α6, αv and β1 integrins", "setting": "[2]", "value": "capable of increasing the expression of integrins"}]}
